From US20190060340A1, “NOVEL AMINOGLYCOSIDES AND USES THEREOF IN THE TREATMENT OF GENETIC DISORDERS” (Technion Research & Development Foundation Limited, priority 2007, published 2019)
In brackets after ≈: the same amount, converted by molar mass. Several values for one entry are separate records, joined by “and”; a condition that tells them apart may be missing. Equal entries are not always repeated.

Tests used:
[1] = system: R245X nonsense mutation (a premature UGA A stop codon) of the PCDH15 gene; assay: In vitro suppression, pDB reporter plasmid in reticulocyte lysate; format: biochemical, human; conditions: for Concentration (μM) at which maximal suppression was observed, R245X / suppression level (%), maximum in vitro, R245X: Table 20; for suppression level (%), maximum in vitro, R245X: at concentration of maximal suppression; for difference in suppression of R3X versus R245X: maximal suppression levels
Protocol: (§1) Compound 37 was tested for its ability to suppress a nonsense mutation in-vitro, using a reporter construct carrying either R3X nonsense mutation (a premature UGA C stop codon) or R245X nonsense mutation (a premature UGA A stop codon) of the PCDH15 gene, using gentamicin, paromomycin and Compound 3 as standards and following the experimental procedures presented hereinabove.
(§2) For the rat-PGM-β-Gal in vitro readthrough system, the pDB series of reporter plasmids harbor the following elements under SP6 promoter control: an open reading frame (ORF) derived from the 5′ end of the rat PGM gene, which encodes a 25-kDa polypeptide; another small ORF, encoding the 10-kDa alpha complementation region of β-galactosidase, and terminated by tandem, in-frame stop codons (UAA UAG); located between the two ORFs is a DNA fragment derived from PCDH15 cDNA, including the tested stop mutation or the corresponding wild-type codon, and six upstream and downstream flanking codons (except for p.R3X constructs, in which there are only two upstream PCDH15-flanking codons). The fragments were created by annealing the following couples of complementary oligonucleotides:
(§3) The fragments were inserted into the BamHI and HindIII restriction sites of the pDB read-through construct. Reporter plasmids harboring each of the four nonsense mutations and the corresponding wt alleles were in vitro transcribed and translated using the TNT SP6 Coupled Reticulocyte lysate System (Promega) in the presence of [^35S]-methionine and increasing concentrations of aminoglycosides as described previously. […] The degree of suppression was calculated as the relative proportion of the 35-kDa product out of total reaction products (35-kDa and 25-kDa polypeptides). The results are averages of at least three independent experiments.

[2] = system: R3X nonsense mutation (a premature UGA C stop codon) of the PCDH15 gene; assay: In vitro suppression and translation, pDB650-R3X reporter plasmid in rabbit reticulocyte lysate coupled transcription/translation system; format: biochemical, human; conditions: for Conc. (concentration at which maximal suppression level was observed) / Supp. level (%), maximal in-vitro mutation suppression: R3X mutation; for Supp. level (%), maximal in-vitro mutation suppression: 35-kDa product out of total protein; for Supp. level (%), maximal in-vitro mutation suppression / Trans. level (%): at Conc. of maximal suppression; for Concentration (μM) at which maximal suppression was observed, R3X / suppression level (%), maximum in vitro, R3X: Table 20; for suppression level (%), maximum in vitro, R3X: at concentration of maximal suppression; for Trans. level (%): total protein relative to no compound
Protocol: Initially, Compounds 1-9 were tested for their ability to suppress this nonsense mutation in vitro, using a reporter construct carrying the R3X nonsense mutation (a premature UGA C stop codon) of the PCDH15 gene. Mutations in the PCDH15 gene which encodes protocardherin 15, cause type 1 Usher syndrome (USH1), which is characterized by profound prelingual hearing loss, vestibular areflexia, and prepubertal onset of retinitis pigmentosa (RP). Four different PCDH15 USH1-causing nonsense mutations, R3X, R245X, R643X, and R929X, have been reported in humans.
Suppression of nonsense mutations by Compounds 1-9 was tested in vitro using a reporter plasmid harboring the R3X mutation of the PCDH15 gene. To create this plasmid, the oligonucleotides 5′-[…]-3′ (SEQ ID NO: 1) and 5′-[…]-3′ (SEQ ID NO: 2) were annealed to each other and inserted into the BamHI and HindIII sites of plasmid pDB650 [6].
The resulting reporter plasmid pDB650-R3X contained a TGA C nonsense mutation between a 25-kDa polypeptide encoding open reading frame (ORF) and a 10-kDa polypeptide encoding ORF.
The plasmid was transcribed and translated in a rabbit reticulocyte lysate coupled transcription/translation system (Promega) in the presence of [^35S]-methionine, and the reaction products were separated by SDS-PAGE and quantified using Phosphorlmager analysis. The mutation suppression level was calculated as the relative proportion of the 35-kDa product out of total protein (the sum of 35-kDa and 25-kDa), and the translation level was calculated as the relative proportion of the total protein at each tested compound concentration out of the total protein without the presence of the tested compounds.
The tested concentrations of paromomycin were 0, 5, 10, 20, 30 and 40 μg/ml, tested concentrations of gentamicin were 0, 5, 10, 20, and 30 μg/ml, and the tested concentrations of Compounds 1-9 were in the range of 0-160 μg/ml.
as §1, §2, §3

[3] = system: Escherichia coli (R477-100); assay: Antibacterial activity, MIC; format: cell-based; conditions: for MIC: Escherichia coli, read-out: minimal inhibitory concentration (MIC)
[4] = system: Escherichia coli ATCC 25922; assay: Antibacterial activity, MIC by double-microdilution method; format: cell-based; conditions: ATCC 25922; for MIC: Escherichia coli, ATCC25922, read-out: MIC E. coli
Protocol: (§4) In order to compare the observed aminoglycoside-induced stop codon read-through activity in mammalian cells to antibacterial activity thereof, Compounds 1-9 were further investigated as antibacterial agents against both Gram-negative (E. coli) and Gram-positive (Bacillus subtilis) bacteria, and the minimal inhibitory concentration (MIC) values were determined by using a microdilution assay with paromomycin and gentamicin as controls, and the results are presented in Table 18 hereinabove.
(§5) The bacterial strains used were Escherichia coli ATCC 25922, and Bacillus Subtilis ATCC 6633. […] All the experiments were performed in triplicates and analogous results were obtained in two to four different experiments.

[5] = system: Bacillus Subtilis ATCC 6633; assay: as above; format: cell-based; conditions: ATCC 6633; for MIC: Bacillus subtilis, ATCC6633, read-out: MIC B. Subtilis
Protocol: as §4, §5

[6] = system: original p2Luc plasmid containing a TGA C nonsense mutation; assay: Dual luciferase in vitro transcription/translation assay; format: biochemical; conditions: for Conc. (μM) at which maximum suppression level was achieved: dual luciferase in vitro system, all constructs of Table 21; for Maximum in vitro suppression (%) UGAC: p2luc
From the text: DNA fragments derived from the subsequent genes, including the tested stop mutation or the corresponding wild-type codon, and four upstream and downstream flanking codons (except for p.R3X constructs, in which there are only two upstream PCDH15-flanking codons) were cloned into p2Luc plasmid between renilla and firefly luciferase genes as described previously. The formed plasmids, as well as the original p2Luc plasmid containing a TGA C nonsense mutation, were transcribed and translated in vitro and the stop codon suppression efficiency was calculated as described previously.
For the dual luciferase in vitro transcription/translation assay, DNA fragments derived from PCDH15, CFTR, Dystrophin and IDUA cDNAs, including the tested stop mutation or the corresponding wild-type codon, and four upstream and downstream flanking codons (except for p.R3X constructs, in which there are only two upstream PCDH15-flanking codons) were created by annealing the couples of complementary oligonucleotides presented above.
Fragments were inserted into the SalI and SacI restriction sites of the p2Luc plasmid between renilla and firefly luciferase genes. The afforded plasmids, as well as the original p2Luc plasmid containing a TGA C nonsense mutation, were transcribed and translated using the TNT Reticulocyte Lysate Quick Coupled Transcription/Translation System (Promega™). Each transcription/translation reaction (10 μl, total volume) contained 8 μl TNT T7 Quick Master Mix, 0.2 μl methionine (1 mM), 0.8 μl DNA template (2 μg/μl), 1 μl of either water (blank) or 1 μl solution of increasing concentrations of the tested aminoglycosides in water. Luciferase activity was determined following 90 minutes incubation at 30° C. using the Dual Luciferase Reporter Assay System (Promega™). The total luminescence produced by each one of the proteins was measured separately using the FLx800 multidetection plate reader (Bio-Tek) and the stop codon suppression efficiency was calculated as described previously. The results are averages of at least three independent experiments.

Compound	Concentration (μM) at which maximal suppression was observed, R245X [1] [µM]	suppression level (%), maximum in vitro, R245X [1]	difference in suppression of R3X versus R245X [1] [fold]	Conc. (concentration at which maximal suppression level was observed) ([2]; in vitro) [µg/mL]	Supp. level (%), maximal in-vitro mutation suppression [2] [%]	Concentration (μM) at which maximal suppression was observed, R3X [2] [µM]	suppression level (%), maximum in vitro, R3X [2]	MIC [3] [µM]	MIC [4] [µg/mL]	MIC [5] [µg/mL]	Conc. (μM) at which maximum suppression level was achieved [6] [µM]	Maximum in vitro suppression (%) UGAC [6] [%]	Trans. level (%) [2]	also measured
NC[C@H]1O[C@@H](O[C@@H]2[C@@H](O)[C@H](N)C[C@H](N)[C@H]2O[C@H]2O[C@H](CO)[C@@H](O)[C@H](O)[C@H]2N)[C@H](O)[C@@H]1O [Compound 3]	178	6.0 ± 0.3%	3.5	80	21 ± 3	142	21% and 21 ± 9%	790 (≈ 359 µg/mL)	> 512	48 (≈ 106 µM)	107	4.8 ± 0.8	–	fold higher activity compared to Compound 1 ([2]; R3X, in vitro): over 3 fold; fold higher suppression level compared to Compound 2 ([2]; R3X, in vitro): 13 fold
NCC[C@H](O)C(=O)N[C@@H]1CC(N)[C@@H](O[C@H]2OC(CO)[C@@H](O)C(O)C2N)C(O[C@@H]2O[C@H](CN)C(O)C2O)C1O (stereo partly drawn) [Compound 37]	153	40.5% and 40.5 ± 7.5%	1.8	–	–	153	71% and 71 ± 9%	384 (≈ 213 µg/mL)	–	–	46	18.4 ± 1.6	–	fold better suppression of R245X than Compound 3 ([1]; maximal suppression level): 6.5 fold; fold better suppression of R245X than gentamicin ([1]; maximal suppression level): 3.6 fold; fold better suppression of R245X than paromomycin ([1]; maximal suppression level): 4.5 fold
NC[C@@H]1O[C@H](O[C@H]2[C@@H](O)[C@H](O[C@@H]3[C@@H](O)[C@H](N)C[C@H](N)[C@H]3O[C@H]3O[C@H](CO)[C@@H](O)[C@H](O)[C@H]3N)O[C@@H]2CO)[C@H](N)[C@@H](O)[C@@H]1O [paromomycin, reference compound]	42	9 ± 3%	5.4	40	49	56	49 ± 6%	22 (≈ 13.5 µg/mL)	12 (≈ 19.5 µM)	8 (≈ 13 µM)	42	7.8 ± 2.2	about 40%	Supp. level (%), maximal in-vitro mutation suppression ([2]; listed as Paromomycin): 49 ± 6%; Trans. level (%) ([2]; listed as Paromomycin): 40 ± 13%
gentamicin [reference compound]	61	11 ± 1.5%	4.5	30	49 ± 4	46	50 ± 3%	–	–	–	46	17.7 ± 2.9	about 40%	Trans. level (%) ([2]; listed as Gentamicin): 40 ± 9%; minimal inhibitory concentration (MIC) ([3]; Escherichia coli (R477-100)): 6 µM; MIC E. coli [4]: 4 µg/mL; MIC B. Subtilis [5]: <0.5 µg/mL
